In patent US8846746B2, “Pyrazole compound and pharmaceutical use thereof” (Japan Tobacco Inc., priority 2011, dated 2014) one finds IC50 and inhibition data, which are given here for 61 compounds.

SMILES strings stand for the structures.

In the first test the target is human SGLT1 (Homo sapiens (Human), UniProt P13866). The experiment in a line: SGLT1 inhibitory activity: 14C-AMG uptake into CHO-K1 cell line stably expressing human SGLT1. In kind it is cell-based. Conditions: 14C-AMG uptake, CHO-K1 cells stably expressing human SGLT1. Summed up: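 Human SGLT1 was stably expressed in CHO-K1 cells. Cells were first held 20 min in sodium-free buffer, then exposed to compound in Na(+)/BSA buffer with tracer and AMG (2 mM in the added solution).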
human SGLT1, sequence (P13866 whole entry): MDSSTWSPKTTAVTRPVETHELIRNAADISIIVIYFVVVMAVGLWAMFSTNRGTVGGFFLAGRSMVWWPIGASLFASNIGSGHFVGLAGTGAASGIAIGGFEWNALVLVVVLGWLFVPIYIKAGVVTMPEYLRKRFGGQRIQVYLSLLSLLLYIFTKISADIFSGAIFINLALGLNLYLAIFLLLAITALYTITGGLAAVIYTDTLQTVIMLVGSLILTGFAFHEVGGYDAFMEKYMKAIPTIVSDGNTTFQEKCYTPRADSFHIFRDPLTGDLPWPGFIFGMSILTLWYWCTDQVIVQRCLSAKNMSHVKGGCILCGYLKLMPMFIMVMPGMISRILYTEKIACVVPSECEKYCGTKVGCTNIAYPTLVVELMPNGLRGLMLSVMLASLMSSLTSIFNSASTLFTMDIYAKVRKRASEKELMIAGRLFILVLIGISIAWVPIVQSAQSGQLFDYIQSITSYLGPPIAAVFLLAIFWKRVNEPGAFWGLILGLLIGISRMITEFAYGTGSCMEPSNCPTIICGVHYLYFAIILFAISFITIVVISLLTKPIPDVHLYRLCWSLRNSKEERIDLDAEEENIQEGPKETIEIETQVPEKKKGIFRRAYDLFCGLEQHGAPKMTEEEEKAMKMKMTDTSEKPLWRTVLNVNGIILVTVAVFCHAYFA
Usually IC50 stands for the concentration needed to halve the response being measured. Low readings indicate greater potency, high ones weaker potency. Consider `C[C@@H](OCc1cccc(-c2cc(NC(=O)[C@@H]3CNC(=O)C3)nn2-c2ccccc2Cl)c1)C(F)(F)F` [Example 475], for which the IC50 was 3.1 nM.

`COc1cccc(-n2nc(NC(=O)[C@@H]3CNC(=O)C3)cc2-c2cccc(OC(F)(F)F)c2)c1F` [Example 476] showed a 50% inhibitory concentration (IC50) of 21 nM. As for `CCOc1cccc(-n2nc(NC(=O)[C@@H]3CNC(=O)C3)cc2-c2cccc(OC(F)(F)F)c2)c1F` [Example 477], the IC50 worked out at 25 nM. `CC(C)Oc1cccc(-n2nc(NC(=O)[C@@H]3CNC(=O)C3)cc2-c2cccc(OC(F)(F)F)c2)c1F` [Example 478] displayed an IC50 of 36 nM. `COc1cccc(-n2nc(NC(=O)[C@@H]3CNC(=O)C3)cc2-c2cccc(COCC(F)(F)F)c2)c1F` [Example 480] returned a half-inhibitory concentration (IC50) of 6.8 nM. Still for that read-out and setting: the result for `CCOc1cccc(-n2nc(NC(=O)[C@@H]3CNC(=O)C3)cc2-c2cccc(COCC(F)(F)F)c2)c1F` [Example 481] reads 8.7 nM. As for `CC(C)Oc1cccc(-n2nc(NC(=O)[C@@H]3CNC(=O)C3)cc2-c2cccc(COCC(F)(F)F)c2)c1F` [Example 482], it took 12 nM to reach half-maximal inhibition (IC50). On the same count and under the same terms, the result for `COCCOc1cccc(-n2nc(NC(=O)[C@@H]3CNC(=O)C3)cc2-c2cccc(COCC(F)(F)F)c2)c1F` [Example 483] reads 59 nM; that for `COc1cccc(-n2nc(NC(=O)[C@@H]3CNC(=O)C3)cc2-c2cccc(CO[C@H](C)C(F)(F)F)c2)c1F` [Example 484], 4.2 nM; that for `CCOc1cccc(-n2nc(NC(=O)[C@@H]3CNC(=O)C3)cc2-c2cccc(CO[C@H](C)C(F)(F)F)c2)c1F` [Example 485], 4.1 nM. The compound `CC(C)Oc1cccc(-n2nc(NC(=O)[C@@H]3CNC(=O)C3)cc2-c2cccc(CO[C@H](C)C(F)(F)F)c2)c1F` [Example 486] yielded an IC50 of 6.5 nM. As for `COCCOc1cccc(-n2nc(NC(=O)[C@@H]3CNC(=O)C3)cc2-c2cccc(CO[C@H](C)C(F)(F)F)c2)c1F` [Example 487], the 50% inhibitory concentration (IC50) came to 23 nM.

As to `O=C1C[C@H](C(=O)Nc2cc(-c3cc(F)cc(COCC(F)(F)F)c3)n(-c3ccccc3)n2)CN1` [Example 488], 18 nM corresponded to half-maximal inhibition (IC50). Still for that read-out and setting: the result for `COCc1cccc(-n2nc(NC(=O)[C@@H]3CNC(=O)C3)cc2-c2cccc(COCC(F)(F)F)c2)c1` [Example 489] reads 11 nM; that for `CCCc1cccc(-c2cc(NC(=O)[C@@H]3CNC(=O)C3)nn2-c2cccc(OCCCSC)c2)c1` [Example 490], 7.6 nM.

`CCCc1cccc(-c2cc(NC(=O)[C@@H]3CNC(=O)C3)nn2-c2cccc(OCC3(C)COC3)c2)c1` [Example 491]: the IC50 stood at 6.5 nM.

Take `CCCc1cccc(-c2cc(NC(=O)[C@@H]3CNC(=O)C3)nn2-c2cccc(OCCCS(C)(=O)=O)c2)c1` [Example 492]: half-maximal inhibition (IC50) required 19 nM. Still for that read-out and setting: the result for `CCCc1cccc(-c2cc(NC(=O)[C@@H]3CNC(=O)C3)nn2-c2cccc(C=C(C)C)c2)c1` [Example 493] reads 8.2 nM. As for `C/C=C/c1cccc(-n2nc(NC(=O)[C@@H]3CNC(=O)C3)cc2-c2cccc(CCC)c2)c1` [Example 494], the IC50 stood at 9.1 nM. Compound `CCCc1cccc(-c2cc(NC(=O)[C@@H]3CNC(=O)C3)nn2-c2cccc(C#CC(C)(C)C)c2)c1` [Example 495] registered an IC50 of 22 nM. On to `CCCc1cccc(-c2cc(NC(=O)[C@@H]3CNC(=O)C3)nn2-c2cccc(CC(C)C)c2)c1` [Example 496], for which the midpoint of inhibition, the IC50, lay at 6.9 nM.

`CCCc1cccc(-c2cc(NC(=O)[C@@H]3CNC(=O)C3)nn2-c2cccc(CCC)c2)c1` [Example 497] yielded an IC50 of 3.3 nM.

Regarding `CCCc1cccc(-c2cc(NC(=O)[C@@H]3CNC(=O)C3)nn2-c2cccc(CCC(C)(C)C)c2)c1` [Example 498], the IC50 came out at 70 nM. As to `O=C1C[C@H](C(=O)Nc2cc(-c3cccc(CNCC(F)(F)F)c3)n(-c3ccccc3)n2)CN1` [Example 501], half-maximal inhibition (IC50) required 69 nM. `O=C1C[C@H](C(=O)Nc2cc(-c3cccc(OC(F)(F)F)c3)n(-c3ccc(F)cc3)n2)CN1` [Example 502] yielded an IC50 of 81 nM.

The compound `O=C1C[C@H](C(=O)Nc2cc(-c3cccc(OC(F)(F)F)c3)n(-c3cccc(Cl)c3)n2)CN1` [Example 504] showed an IC50 of 23 nM. Compound `O=C1C[C@H](C(=O)Nc2cc(-c3cccc(COCC(F)(F)F)c3)n(-c3cccc(Cl)c3)n2)CN1` [Example 505] registered an IC50 of 11 nM. In turn, `C[C@@H](OCc1cccc(-c2cc(NC(=O)[C@@H]3CNC(=O)C3)nn2-c2cccc(Cl)c2)c1)C(F)(F)F` [Example 506] returned an IC50 of 4.7 nM. As to `O=C1C[C@H](C(=O)Nc2cc(-c3cccc(COCC(F)(F)F)c3)n(-c3ccc(Cl)cc3)n2)CN1` [Example 508], the IC50 came to 20 nM. In the case of `O=C1C[C@H](C(=O)Nc2cc(-c3cccc(COCC(F)(F)F)c3)n(-c3cccc(OC4COC4)c3)n2)CN1` [Example 509], it took 38 nM to reach half-maximal inhibition (IC50). The compound `O=C1C[C@H](C(=O)Nc2cc(-c3cc(F)cc(COCC(F)(F)F)c3)n(-c3ccccc3Cl)n2)CN1` [Example 510] displayed an IC50 of 8.3 nM. `O=C1C[C@H](C(=O)Nc2cc(-c3cc(F)cc(COCC(F)(F)F)c3)n(-c3cccc(Cl)c3)n2)CN1` [Example 511]: the concentration for half-maximal inhibition (IC50) was determined as 7.9 nM.

`O=C1C[C@H](C(=O)Nc2cc(-c3cc(F)cc(COCC(F)(F)F)c3)n(-c3ccc(Cl)cc3)n2)CN1` [Example 512] yielded a concentration for half-maximal inhibition (IC50) of 16 nM. Compound `C[C@@H](OCc1cc(F)cc(-c2cc(NC(=O)[C@@H]3CNC(=O)C3)nn2-c2ccccc2Cl)c1)C(F)(F)F` [Example 513] came in with a concentration for half-maximal inhibition (IC50) of 3.2 nM. On to `C[C@@H](OCc1cc(F)cc(-c2cc(NC(=O)[C@@H]3CNC(=O)C3)nn2-c2cccc(Cl)c2)c1)C(F)(F)F` [Example 514], for which half-maximal inhibition (IC50) required 4 nM. In turn, `COc1ccc(F)c(-n2nc(NC(=O)[C@@H]3CNC(=O)C3)cc2-c2cccc(OC(F)(F)F)c2)c1` [Example 515] gave an IC50 of 12 nM. Same read-out and setting: the result for `CCOc1ccc(F)c(-n2nc(NC(=O)[C@@H]3CNC(=O)C3)cc2-c2cccc(OC(F)(F)F)c2)c1` [Example 516] reads 8.3 nM. In turn, `CC(C)Oc1ccc(F)c(-n2nc(NC(=O)[C@@H]3CNC(=O)C3)cc2-c2cccc(OC(F)(F)F)c2)c1` [Example 517] displayed an IC50 of 3.8 nM.

`COCCOc1ccc(F)c(-n2nc(NC(=O)[C@@H]3CNC(=O)C3)cc2-c2cccc(OC(F)(F)F)c2)c1` [Example 518] registered a concentration for half-maximal inhibition (IC50) of 11 nM.

The compound `O=C1C[C@H](C(=O)Nc2cc(-c3cc(F)cc(COCC(F)(F)F)c3)n(-c3ccccc3F)n2)CN1` [Example 519] returned a concentration for half-maximal inhibition (IC50) of 13 nM. With `O=C1C[C@H](C(=O)Nc2cc(-c3cc(F)cc(COCC(F)(F)F)c3)n(-c3cccc(F)c3)n2)CN1` [Example 520], the IC50 worked out at 18 nM. The same measure, in the same setting: as for `C[C@@H](OCc1cc(F)cc(-c2cc(NC(=O)[C@@H]3CNC(=O)C3)nn2-c2cccc(F)c2)c1)C(F)(F)F` [Example 521], the figure is 5.15 nM; as for `COc1ccc(F)c(-n2nc(NC(=O)[C@@H]3CNC(=O)C3)cc2-c2cccc(COCC(F)(F)F)c2)c1` [Example 522], 5.3 nM. On the same count and under the same terms, as for `COc1ccc(F)c(-n2nc(NC(=O)[C@@H]3CNC(=O)C3)cc2-c2cccc(CO[C@H](C)C(F)(F)F)c2)c1` [Example 523], the figure is 2.15 nM; as for `COc1cc(F)cc(-n2nc(NC(=O)[C@@H]3CNC(=O)C3)cc2-c2cccc(OC(F)(F)F)c2)c1` [Example 524], 27 nM; as for `CCOc1cc(F)cc(-n2nc(NC(=O)[C@@H]3CNC(=O)C3)cc2-c2cccc(OC(F)(F)F)c2)c1` [Example 525], 18 nM. As to `CC(C)Oc1cc(F)cc(-n2nc(NC(=O)[C@@H]3CNC(=O)C3)cc2-c2cccc(OC(F)(F)F)c2)c1` [Example 526], the half-inhibitory concentration (IC50) amounted to 9.2 nM.

In turn, `COc1cc(F)cc(-n2nc(NC(=O)[C@@H]3CNC(=O)C3)cc2-c2cccc(COCC(F)(F)F)c2)c1` [Example 527] returned an IC50 of 8.5 nM. `CCOc1cc(F)cc(-n2nc(NC(=O)[C@@H]3CNC(=O)C3)cc2-c2cccc(COCC(F)(F)F)c2)c1` [Example 528] gave an IC50 of 3.6 nM.

For `CC(C)Oc1cc(F)cc(-n2nc(NC(=O)[C@@H]3CNC(=O)C3)cc2-c2cccc(COCC(F)(F)F)c2)c1` [Example 529], the IC50 was 2.3 nM.

In turn, `CC(C)(C)/C=C/c1cccc(-c2cc(NC(=O)[C@@H]3CNC(=O)C3)nn2-c2ccccc2)c1` [Example 531] had an IC50 of 30 nM. On to `COc1cc(F)cc(-n2nc(NC(=O)[C@@H]3CNC(=O)C3)cc2-c2cccc(CO[C@H](C)C(F)(F)F)c2)c1` [Example 533], for which the half-inhibitory concentration (IC50) was 2.1 nM.

`CCOc1cc(F)cc(-n2nc(NC(=O)[C@@H]3CNC(=O)C3)cc2-c2cccc(CO[C@H](C)C(F)(F)F)c2)c1` [Example 534]: the 50% inhibitory concentration (IC50) was 1.8 nM. Consider `CC(C)Oc1cc(F)cc(-n2nc(NC(=O)[C@@H]3CNC(=O)C3)cc2-c2cccc(CO[C@H](C)C(F)(F)F)c2)c1` [Example 535], for which the IC50 is 2.8 nM.

The test is the same for the next values; noted with them: CHO-K1, at 0.1 uM.
The term inhibition denotes the change of the read-out against control, counted positive when it falls. As for `COCCOc1cccc(-n2nc(NC(=O)[C@@H]3CNC(=O)C3)cc2-c2cccc(OC(F)(F)F)c2)c1F` [Example 479], the inhibition at 0.1 µM came to 46%. For the compound `CC(C)(C)C#Cc1cccc(-c2cc(NC(=O)[C@@H]3CNC(=O)C3)nn2-c2ccccc2)c1` [Example 499], the inhibition at 0.1 µM is 4%. On the same count and under the same terms, the result for `CCCc1cccc(-c2cc(NC(=O)[C@@H]3CNC(=O)CN3)nn2-c2ccccc2)c1` [Example 500] reads 19%. Still for that read-out and setting: the result for `O=C1C[C@H](C(=O)Nc2cc(-c3cccc(COCC(F)(F)F)c3)n(-c3cc(Cl)ccc3F)n2)CN1` [Example 503] reads -17%; that for `O=C1C[C@H](C(=O)Nc2cc(-c3cccc(OC(F)(F)F)c3)n(-c3ccc(Cl)cc3)n2)CN1` [Example 507], 50%. Take `CS(=O)(=O)c1cccc(-n2nc(NC(=O)[C@@H]3CNC(=O)C3)cc2-c2cccc(COCC(F)(F)F)c2)c1` [Example 530]: the inhibition at 0.1 µM is 40%. `O=C1C[C@H](C(=O)Nc2cc(-c3cccc(C#CC4CC4)c3)n(-c3ccccc3)n2)CN1` [Example 532]: the inhibition at 0.1 µM came out at 26%.
